Assays:
Assay in all cases: biochemical
Parameters in all cases: KINOMEscan competition binding, DNA-tagged kinase against immobilised ligand, qPCR read-out
Conditions in all cases: read-out: Percent Control
CAMK2A = CAMK2A (Homo sapiens, UniProt Q9UQM7)
LYN = LYN (Homo sapiens, UniProt P07948)
CDK2 = CDK2 (Homo sapiens, UniProt P24941)
RET = RET (Homo sapiens, UniProt P07949)
RAF1 = RAF1 (Homo sapiens, UniProt P04049)
STK39 = STK39 (Homo sapiens, UniProt Q9UEW8)
STK32C = STK32C (Homo sapiens, UniProt Q86UX6)
TTK = TTK (Homo sapiens, UniProt P33981)
MUSK = MUSK (Homo sapiens, UniProt O15146)
ABL1-phosphorylated = biological target: T1, ABL1-phosphorylated (Homo sapiens, UniProt P00519)
T1 construct: phosphorylated

[1] = biological target: T2, RSK2(Kin.Dom.2-C-terminal) (Homo sapiens, UniProt P51812)
T2 construct: gene RPS6KA3; Kin.Dom.2 C-terminal

[2] = biological target: T3, RSK2(Kin.Dom.1-N-terminal) (Homo sapiens, UniProt P51812)
T3 construct: gene RPS6KA3; Kin.Dom.1 N-terminal

STK38L = STK38L (Homo sapiens, UniProt Q9Y2H1)
PIK3CD = PIK3CD (Homo sapiens, UniProt O00329)
CDC42BPB = CDC42BPB (Homo sapiens, UniProt Q9Y5S2)
FLT1 = FLT1 (Homo sapiens, UniProt P17948)
MAP3K3 = MAP3K3 (Homo sapiens, UniProt Q99759)
PIP4K2C = PIP4K2C (Homo sapiens, UniProt Q8TBX8)
PAK2 = PAK2 (Homo sapiens, UniProt Q13177)
BTK = BTK (Homo sapiens, UniProt Q06187)

Chain of PIK3CD (O00329 whole entry): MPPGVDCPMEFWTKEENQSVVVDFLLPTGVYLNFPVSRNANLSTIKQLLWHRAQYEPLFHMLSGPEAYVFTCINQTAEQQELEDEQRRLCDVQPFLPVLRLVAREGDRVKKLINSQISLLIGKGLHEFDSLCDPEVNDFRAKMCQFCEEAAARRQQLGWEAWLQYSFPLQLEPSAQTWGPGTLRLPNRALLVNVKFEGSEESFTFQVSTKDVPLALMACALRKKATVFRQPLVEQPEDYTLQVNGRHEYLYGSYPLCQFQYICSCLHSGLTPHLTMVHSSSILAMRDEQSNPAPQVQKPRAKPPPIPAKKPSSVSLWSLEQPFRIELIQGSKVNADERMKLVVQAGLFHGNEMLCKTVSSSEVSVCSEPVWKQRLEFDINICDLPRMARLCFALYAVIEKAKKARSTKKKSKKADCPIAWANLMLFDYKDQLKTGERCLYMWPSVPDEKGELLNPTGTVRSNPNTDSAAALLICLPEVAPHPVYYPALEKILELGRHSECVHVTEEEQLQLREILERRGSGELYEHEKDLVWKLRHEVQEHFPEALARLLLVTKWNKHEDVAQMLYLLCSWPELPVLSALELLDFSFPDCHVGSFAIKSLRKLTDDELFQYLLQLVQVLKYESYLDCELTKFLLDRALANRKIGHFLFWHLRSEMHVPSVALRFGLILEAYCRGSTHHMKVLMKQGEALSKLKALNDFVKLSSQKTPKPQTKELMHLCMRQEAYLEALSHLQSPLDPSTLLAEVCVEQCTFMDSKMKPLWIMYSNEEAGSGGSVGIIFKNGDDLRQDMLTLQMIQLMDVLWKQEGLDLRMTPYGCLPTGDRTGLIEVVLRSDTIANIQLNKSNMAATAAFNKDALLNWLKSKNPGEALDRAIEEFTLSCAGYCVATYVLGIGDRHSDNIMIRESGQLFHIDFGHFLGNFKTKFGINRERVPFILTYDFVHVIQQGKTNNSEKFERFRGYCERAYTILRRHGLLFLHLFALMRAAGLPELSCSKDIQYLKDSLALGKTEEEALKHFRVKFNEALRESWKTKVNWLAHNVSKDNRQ
Chain of CDC42BPB (Q9Y5S2 whole entry): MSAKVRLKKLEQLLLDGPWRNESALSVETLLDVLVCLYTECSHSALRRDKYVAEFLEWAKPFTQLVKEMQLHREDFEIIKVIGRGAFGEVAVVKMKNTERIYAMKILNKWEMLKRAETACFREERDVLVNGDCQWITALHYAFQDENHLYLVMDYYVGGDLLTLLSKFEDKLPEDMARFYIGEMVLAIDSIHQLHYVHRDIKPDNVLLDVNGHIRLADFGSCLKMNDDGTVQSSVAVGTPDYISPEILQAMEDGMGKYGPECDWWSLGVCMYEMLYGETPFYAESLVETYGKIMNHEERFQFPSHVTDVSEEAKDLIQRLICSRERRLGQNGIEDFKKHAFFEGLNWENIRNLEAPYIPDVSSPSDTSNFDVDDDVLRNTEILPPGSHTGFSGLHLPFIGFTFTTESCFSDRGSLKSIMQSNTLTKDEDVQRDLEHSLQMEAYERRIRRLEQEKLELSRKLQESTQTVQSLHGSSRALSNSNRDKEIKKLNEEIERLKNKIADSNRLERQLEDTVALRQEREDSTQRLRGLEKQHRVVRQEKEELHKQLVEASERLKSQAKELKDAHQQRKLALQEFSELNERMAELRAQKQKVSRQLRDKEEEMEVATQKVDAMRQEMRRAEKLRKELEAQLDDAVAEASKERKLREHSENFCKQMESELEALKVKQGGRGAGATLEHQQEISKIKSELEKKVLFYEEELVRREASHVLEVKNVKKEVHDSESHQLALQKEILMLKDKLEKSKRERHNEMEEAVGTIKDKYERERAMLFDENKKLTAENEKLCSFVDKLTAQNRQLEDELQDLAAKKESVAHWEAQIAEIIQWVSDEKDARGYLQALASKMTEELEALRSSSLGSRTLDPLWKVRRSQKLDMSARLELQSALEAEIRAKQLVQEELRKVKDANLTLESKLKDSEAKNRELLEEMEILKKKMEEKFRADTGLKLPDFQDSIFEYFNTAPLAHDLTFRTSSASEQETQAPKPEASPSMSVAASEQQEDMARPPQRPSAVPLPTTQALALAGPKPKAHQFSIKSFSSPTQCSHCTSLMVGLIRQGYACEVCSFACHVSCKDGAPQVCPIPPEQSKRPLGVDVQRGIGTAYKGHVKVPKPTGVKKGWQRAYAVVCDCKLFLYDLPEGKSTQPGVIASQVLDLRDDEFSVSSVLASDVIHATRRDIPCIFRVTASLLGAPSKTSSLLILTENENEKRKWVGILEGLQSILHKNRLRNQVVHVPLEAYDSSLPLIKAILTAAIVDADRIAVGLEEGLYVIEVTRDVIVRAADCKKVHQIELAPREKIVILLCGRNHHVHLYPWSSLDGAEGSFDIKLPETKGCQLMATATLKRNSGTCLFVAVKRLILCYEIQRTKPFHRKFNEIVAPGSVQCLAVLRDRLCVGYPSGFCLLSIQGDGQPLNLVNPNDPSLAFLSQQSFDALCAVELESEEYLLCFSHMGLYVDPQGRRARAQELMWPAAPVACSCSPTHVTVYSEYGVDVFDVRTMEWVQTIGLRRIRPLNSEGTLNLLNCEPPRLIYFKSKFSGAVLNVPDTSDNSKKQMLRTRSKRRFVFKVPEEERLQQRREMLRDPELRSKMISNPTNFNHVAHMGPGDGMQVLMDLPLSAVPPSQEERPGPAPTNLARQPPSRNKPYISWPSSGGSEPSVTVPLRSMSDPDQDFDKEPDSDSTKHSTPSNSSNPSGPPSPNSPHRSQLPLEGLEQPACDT
Chain of STK38L (Q9Y2H1 whole entry): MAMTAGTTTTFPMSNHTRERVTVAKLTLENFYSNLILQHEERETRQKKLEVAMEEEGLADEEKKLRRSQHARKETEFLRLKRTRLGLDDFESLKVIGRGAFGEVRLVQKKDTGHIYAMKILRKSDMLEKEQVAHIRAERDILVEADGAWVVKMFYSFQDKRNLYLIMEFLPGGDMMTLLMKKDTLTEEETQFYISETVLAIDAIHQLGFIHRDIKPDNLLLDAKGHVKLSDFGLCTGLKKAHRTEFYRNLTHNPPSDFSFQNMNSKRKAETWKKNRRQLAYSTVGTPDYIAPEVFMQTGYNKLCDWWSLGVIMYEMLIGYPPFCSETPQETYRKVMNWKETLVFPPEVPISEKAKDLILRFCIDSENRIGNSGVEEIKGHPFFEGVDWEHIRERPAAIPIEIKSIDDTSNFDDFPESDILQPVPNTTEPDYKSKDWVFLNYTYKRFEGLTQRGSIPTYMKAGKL
Chain of RAF1 (P04049 whole entry): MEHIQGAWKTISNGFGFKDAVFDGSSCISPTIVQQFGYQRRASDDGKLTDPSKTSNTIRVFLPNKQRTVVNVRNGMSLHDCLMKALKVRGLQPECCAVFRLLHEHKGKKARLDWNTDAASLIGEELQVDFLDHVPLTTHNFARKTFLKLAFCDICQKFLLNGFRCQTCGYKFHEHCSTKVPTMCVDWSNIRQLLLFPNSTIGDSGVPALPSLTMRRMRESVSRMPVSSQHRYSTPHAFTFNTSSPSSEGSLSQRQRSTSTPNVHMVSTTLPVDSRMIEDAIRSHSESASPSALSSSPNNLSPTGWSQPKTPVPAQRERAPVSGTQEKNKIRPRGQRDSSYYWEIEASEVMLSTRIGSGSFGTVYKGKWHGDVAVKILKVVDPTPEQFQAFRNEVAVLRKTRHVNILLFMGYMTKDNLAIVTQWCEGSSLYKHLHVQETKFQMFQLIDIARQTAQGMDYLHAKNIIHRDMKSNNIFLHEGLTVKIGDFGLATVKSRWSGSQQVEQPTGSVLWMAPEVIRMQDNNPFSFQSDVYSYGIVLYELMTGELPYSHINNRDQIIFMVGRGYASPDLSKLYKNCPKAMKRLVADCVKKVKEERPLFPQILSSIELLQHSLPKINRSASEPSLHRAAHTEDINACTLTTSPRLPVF
Chain of MAP3K3 (Q99759 whole entry): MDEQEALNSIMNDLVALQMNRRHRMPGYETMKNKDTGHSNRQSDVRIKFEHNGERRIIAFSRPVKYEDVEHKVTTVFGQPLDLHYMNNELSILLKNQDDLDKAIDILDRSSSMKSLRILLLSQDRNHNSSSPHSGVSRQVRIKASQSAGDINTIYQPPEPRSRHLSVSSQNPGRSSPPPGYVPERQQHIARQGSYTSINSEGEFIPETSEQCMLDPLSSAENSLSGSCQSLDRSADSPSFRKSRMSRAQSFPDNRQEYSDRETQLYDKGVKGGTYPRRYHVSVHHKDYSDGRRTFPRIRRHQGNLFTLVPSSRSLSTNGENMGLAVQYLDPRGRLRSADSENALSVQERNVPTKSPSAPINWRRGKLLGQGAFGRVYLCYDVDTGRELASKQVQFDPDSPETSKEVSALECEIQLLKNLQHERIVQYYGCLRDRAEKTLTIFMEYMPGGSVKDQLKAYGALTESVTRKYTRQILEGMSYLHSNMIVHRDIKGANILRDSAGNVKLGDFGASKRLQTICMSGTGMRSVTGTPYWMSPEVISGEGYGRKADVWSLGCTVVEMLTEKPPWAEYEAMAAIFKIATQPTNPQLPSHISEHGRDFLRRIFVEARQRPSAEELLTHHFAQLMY
Chain of STK32C (Q86UX6 whole entry): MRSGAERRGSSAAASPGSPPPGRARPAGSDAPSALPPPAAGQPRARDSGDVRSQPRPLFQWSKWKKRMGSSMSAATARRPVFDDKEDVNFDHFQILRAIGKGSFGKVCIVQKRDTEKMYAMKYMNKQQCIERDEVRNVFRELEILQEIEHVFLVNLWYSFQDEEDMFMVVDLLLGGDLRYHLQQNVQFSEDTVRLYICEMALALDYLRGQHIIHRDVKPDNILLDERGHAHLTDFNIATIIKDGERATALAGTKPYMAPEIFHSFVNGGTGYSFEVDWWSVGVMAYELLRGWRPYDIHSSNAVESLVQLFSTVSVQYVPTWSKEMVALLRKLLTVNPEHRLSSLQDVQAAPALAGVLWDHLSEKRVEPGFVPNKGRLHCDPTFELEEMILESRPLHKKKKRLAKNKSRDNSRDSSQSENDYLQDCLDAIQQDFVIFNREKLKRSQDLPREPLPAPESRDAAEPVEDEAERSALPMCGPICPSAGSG

SMILES: Oc1ccc(C2=Cc3ccc(O)cc3OC2)cc1 [compound 1, idronoxil]
- remaining binding at 10 µM (CAMK2A): 87%
- remaining binding at 10 µM (LYN): 71%
- remaining binding at 10 µM (CDK2): 92%
- remaining binding at 10 µM (RET): 96%
- remaining binding at 10 µM (RAF1): 69%
- remaining binding at 10 µM (STK39): 71%
- remaining binding at 10 µM (STK32C): 54%
- remaining binding at 10 µM (TTK): 83%
- remaining binding at 10 µM (MUSK): 89%
- remaining binding at 10 µM (ABL1-phosphorylated): 35%
- remaining binding at 10 µM [1]: 95%
- remaining binding at 10 µM [2]: 57%
- remaining binding at 10 µM (STK38L): 92%
- remaining binding at 10 µM (PIK3CD): 86%
- remaining binding at 10 µM (CDC42BPB): 88%
- remaining binding at 10 µM (FLT1): 100%
- remaining binding at 10 µM (MAP3K3): 81%
- remaining binding at 10 µM (PIP4K2C): 52%
- remaining binding at 10 µM (PAK2): 49%
- remaining binding at 10 µM (BTK): 97%

Source: paper PMC10507085, “Pharmacological inhibition of TBK1/IKKε blunts immunopathology in a murine model of SARS-CoV-2 infection” (Nature Communications, 2023)
